Consider 35 compounds from PubChem BioAssay AID1418 (Emory University Molecular Libraries Screening Center, 2008).

The structures appear in SMILES notation. Calls of active or inactive are those of the source. The rule behind the calls is not given here.

As a reminder, the IC50 is the concentration needed to halve the response being measured.

The target of this test is Induced myeloid leukemia cell differentiation protein Mcl-1 (Homo sapiens) (UniProt Q07820). The test is described as follows: blockers of Bid binding to Mcl-1 – biochemical, TR-FRET, dose response (AID 1418). To be noted: Mcl-1/Bid peptide binding, TR-FRET (europium/Dy647), 2 hr. For orientation: Time-resolved FRET reads energy transfer from a long-lived donor to a nearby acceptor.
Chain of Induced myeloid leukemia cell differentiation protein Mcl-1 (Homo sapiens) (Q07820 whole entry, looked up): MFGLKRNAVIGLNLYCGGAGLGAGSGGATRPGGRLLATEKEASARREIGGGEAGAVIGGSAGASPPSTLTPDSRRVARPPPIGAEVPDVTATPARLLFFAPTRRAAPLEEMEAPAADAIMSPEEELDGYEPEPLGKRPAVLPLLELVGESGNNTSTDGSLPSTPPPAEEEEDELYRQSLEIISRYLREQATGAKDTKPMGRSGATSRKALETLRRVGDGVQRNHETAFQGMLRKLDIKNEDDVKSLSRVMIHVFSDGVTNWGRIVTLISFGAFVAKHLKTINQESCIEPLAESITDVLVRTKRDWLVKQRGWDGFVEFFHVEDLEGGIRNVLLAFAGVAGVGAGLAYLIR
`COCCCNCC(=O)Nc1sc(C)c(C)c1C(=O)OC`: the IC50 is > 54 µM (inactive). As for `O=C(O)c1ccccc1-c1ccc(/C=c2\sc3nc4cc(Br)cnc4n3c2=O)o1`, the IC50 is 18.5 µM. For the compound `O=c1[nH]c(=O)n(CCc2ccccc2)c(O)c1C=NCc1ccc2c(c1)OCO2`, the IC50 result was “inactive”.

Consider `Oc1cc2c(cc1C(c1ccc(Cl)c(Cl)c1)N1CCCC1)OCO2` (stereo not given), for which the IC50 was 0.59 µM.

Take `Nc1c(C(=O)NC2CC2)sc2nc3c(c(-c4ccco4)c12)CC/C3=C/c1ccco1`: the IC50 is > 54 µM (inactive). With `COc1ccc(NC(C)C(=O)Nc2ccc(C#N)cc2)cc1Cl` (stereo not given), the IC50 was > 54 µM (inactive). For `O=C(COC(=O)CCS(=O)(=O)c1ccc(Cl)cc1)Nc1ncc(Cl)cc1Cl` the value was > 54 µM (inactive). For the compound `O=C(Nc1ccc(CCC(=O)N2CCCC2)cc1)c1ncn[nH]1`, the IC50 is > 54 µM (inactive).

Turning to `CN1CCCCC1c1ccc(-c2cccnc2)nc1` (stereo not given), the IC50 result was “inactive”.

As for `NS(=O)(=O)c1cc2c(cc1Cl)NC(Cc1ccccc1)NS2(=O)=O` (stereo not given), the IC50 is > 54 µM (inactive). The same measure for `CCN(CC)c1ccc2cc(-c3nc4ccccc4[nH]3)c(=O)oc2c1`: 1.62 µM; for `N=C1/C(=C/c2ccc(-c3cccc(C(=O)O)c3)o2)C(=O)N=C2SC=C(c3ccccc3)N12`: 1.02 µM.

As to `Cc1sc(NC(=O)c2sc3nc4c(C)cccc4cc3c2N)c(C#N)c1C`, the IC50 was 0.95 µM. The same measure for `COc1ccc(NS(=O)(=O)c2cccc(NC(=O)CCC(=O)c3ccc(Cl)cc3)c2)cc1`: > 54 µM (inactive). Regarding `CCCCN(Cc1cc2cc(OC)ccc2[nH]c1=O)C(=O)c1ccccn1`, the IC50 is > 54 µM (inactive). Regarding `COC(=O)c1ccccc1NC(=O)COC(=O)/C=C/c1ccco1`, the IC50 was > 54 µM (inactive). With `CCCN(CCC)CCNC(=O)C1CC(=O)N(c2ccc(OC)cc2)C1c1ccc(OC)cc1` (stereo not given), the IC50 is > 54 µM (inactive).

Take `COc1ccccc1CNC(=O)CC(NS(=O)(=O)c1ccc(C)cc1)c1ccco1` (stereo not given): the IC50 was > 54 µM (inactive). As for `O=C(CN1C(=O)c2ccccc2C1=O)N1CCCCC1`, the IC50 is > 54 µM (inactive).

With `Cc1ccc2nc(SC(C)C(=O)NC3CCCc4ccccc43)[nH]c2c1` (stereo not given), the IC50 is > 54 µM (inactive). As to `COC(=O)/C=C1/SC(=Nc2ccc(C)cc2C)NC1=O`, the IC50 was > 54 µM (inactive). With `CCOc1ccc(N/C(=C(/C(Cl)=C(Cl)Cl)[N+](=O)[O-])n2cncn2)cc1`, the IC50 is > 54 µM (inactive). Regarding `O=C(Nc1cccc(Cl)c1)c1cc(N=Nc2ccc([N+](=O)[O-])cc2Cl)ccc1O`, the 50% inhibitory concentration (IC50) is 4.18 µM. For `CN(CCN(C)C(C)(C)C)C(=O)C(c1ccccc1)c1ccccc1` the value was > 54 µM (inactive); for `COc1cc(OC)c2c(O)c3c(c(-c4c5c(c(O)c6c(OC)cc(OC)cc46)CO[C@@H](C)[C@H]5O)c2c1)[C@H](O)[C@H](C)OC3`, 14.4 µM; for `O=C(COc1ccc2c(c1)CCC2)N1CCc2ccccc21`, > 54 µM (inactive). The same measure for `CCCCSc1cc(C)nc(N)n1`: > 54 µM (inactive). The same measure for `Cc1ccc(NC(=O)CN2C(=O)S/C(=C/c3ccc(-c4cc(C(=O)O)ccc4C)o3)C2=O)cc1C`: 2.69 µM. In the case of `c1ccc2nc3ccccc3nc2c1`, the IC50 was > 54 µM (inactive). Turning to `CCc1ccc(CCC(=O)Nc2ccc(C)cc2C)o1`, the IC50 was > 54 µM (inactive).

On to `O=C(Nc1nccs1)C1CC(=O)N(Cc2ccco2)C1` (stereo not given), for which the IC50 is > 54 µM (inactive). As to `N#C/C(=C\c1ccc(N2CCCC2)c([N+](=O)[O-])c1)c1nc2ccccc2[nH]1`, the concentration for half-maximal inhibition (IC50) is 21.6 µM.

In the case of `O=C(CCC(=O)c1ccc(Oc2ccccc2)cc1)Nc1cccc(Cl)c1`, the IC50 was > 54 µM (inactive). Consider `O=C(NCc1nc2ncc(Br)cc2[nH]1)c1ccccc1`, for which the IC50 was > 54 µM (inactive). The same measure for `Cc1ccc([N+](=O)[O-])cc1N=Nc1c(-c2ccc([N+](=O)[O-])cc2)[nH]n(C(N)=S)c1=O`: 2.22 µM.
